Earlier results on one compound are cited in PubChem BioAssay AID1259409 (Chemical Carcinogenesis Research Information System (CCRIS), 2018).

Molecules are shown by their SMILES.

For the data set, the system named is rodent chemically induced tumor inhibition, incidence and multiplicity. The data set is described as follows: CCRIS tumor inhibitor studies. Conditions: Route [Inhibitor]: ORAL, Promoter: NONE USED. An excerpt: The CCRIS database contains chemical records with carcinogenicity, mutagenicity, tumor promotion, and tumor inhibition test results. It was developed by the National Cancer Institute (NCI). Data are derived from studies cited in primary journals, current awareness tools, NCI reports, and other sources. Test results have been reviewed by experts in carcinogenesis and mutagenesis.
CCRIS provides historical information from the years 1985 - 2011. It is no longer updated.
This is an archive assay for CCRIS tumor inhibitor studies.

In the case of `CC1=C(/C=C/C(C)=C/C=C/C(C)=C/C(=O)NCCO)C(C)(C)CCC1`, the “tumour outcome (control, treated, inhibition, significance)” value (Carcinogen: N-NITROSOBIS(2-OXYPROPYL)AMINE, 60599-38-4, Dose [Inhibitor]: 0.05, 0.1 OR 0.2 MM/KG DIET FOR 32 WK STARTING 1 WK AFTER THE CARCINOGEN DOSE (STUDY DURATION: 33 WK), Species: HAMSTER, Strain/Sex: SYRIAN/FEMALE, Target Tissue: Type of Lesion: PANCREAS: CARCINOMA IN SITU, Dose [Carcinogen]: 40 MG/KG, ONCE, ONE WK PRIOR TO START OF AGENT TREATMENT) is reported as 1/10 (10%), 11/29 (38%), -280%, not significant; the “tumour outcome (control, treated, inhibition, significance)” value (Carcinogen: N-NITROSOBIS(2-OXYPROPYL)AMINE, 60599-38-4, Dose [Inhibitor]: 0.05, 0.1 OR 0.2 MM/KG DIET FOR 32 WK STARTING 1 WK AFTER THE CARCINOGEN DOSE (STUDY DURATION: 33 WK), Species: HAMSTER, Strain/Sex: SYRIAN/FEMALE, Target Tissue: Type of Lesion: PANCREAS: INTRADUCTAL CARCINOMA, Dose [Carcinogen]: 40 MG/KG, ONCE, ONE WK PRIOR TO START OF AGENT TREATMENT) is 2/10 (20%), 6/29 (21%), -5%, not significant; the “tumour outcome (control, treated, inhibition, significance)” value (Carcinogen: N-NITROSOBIS(2-OXYPROPYL)AMINE, 60599-38-4, Dose [Inhibitor]: 0.05, 0.1 OR 0.2 MM/KG DIET FOR 32 WK STARTING 1 WK AFTER THE CARCINOGEN DOSE (STUDY DURATION: 33 WK), Species: HAMSTER, Strain/Sex: SYRIAN/MALE, Target Tissue: Type of Lesion: PANCREAS: ADENOCARCINOMA, Dose [Carcinogen]: 40 MG/KG, ONCE, ONE WK PRIOR TO START OF AGENT TREATMENT) was 1/12 (8%), 4/29 (14%), -75%, not significant; the “tumour outcome (control, treated, inhibition, significance)” value (Carcinogen: N-NITROSOBIS(2-OXYPROPYL)AMINE, 60599-38-4, Dose [Inhibitor]: 0.05, 0.1 OR 0.2 MM/KG DIET FOR 32 WK STARTING 1 WK AFTER THE CARCINOGEN DOSE (STUDY DURATION: 33 WK), Species: HAMSTER, Strain/Sex: SYRIAN/MALE, Target Tissue: Type of Lesion: PANCREAS: CARCINOMA IN SITU, Dose [Carcinogen]: 40 MG/KG, ONCE, ONE WK PRIOR TO START OF AGENT TREATMENT) is listed as 3/12 (25%), 5/29 (17%), 32%, not significant; the “tumour outcome (control, treated, inhibition, significance)” value (Carcinogen: N-NITROSOBIS(2-OXYPROPYL)AMINE, 60599-38-4, Dose [Inhibitor]: 0.05, 0.1 OR 0.2 MM/KG DIET FOR 32 WK STARTING 1 WK AFTER THE CARCINOGEN DOSE (STUDY DURATION: 33 WK), Species: HAMSTER, Strain/Sex: SYRIAN/MALE, Target Tissue: Type of Lesion: PANCREAS: INTRADUCTAL CARCINOMA, Dose [Carcinogen]: 40 MG/KG, ONCE, ONE WK PRIOR TO START OF AGENT TREATMENT) is recorded as 2/12 (17%), 0/29 (0%), 100%, not significant; the “tumour outcome (control, treated, inhibition, significance)” value (Carcinogen: N-NITROSOBIS(2-OXYPROPYL)AMINE, 60599-38-4, Dose [Inhibitor]: 0.05, 0.1 OR 0.2 MM/KG DIET FOR 32 WK STARTING 1 WK AFTER THE CARCINOGEN DOSE (STUDY DURATION: 33 WK), Species: HAMSTER, Strain/Sex: SYRIAN/MALE, Target Tissue: Type of Lesion: PANCREAS: MICROCARCINOMA, Dose [Carcinogen]: 40 MG/KG, ONCE, ONE WK PRIOR TO START OF AGENT TREATMENT) is 3/12 (25%), 4/29 (14%), 44%, not significant. Also, the “tumour outcome (control, treated, inhibition, significance)” value (Carcinogen: NONE USED, Dose [Inhibitor]: 687 MG/KG DIET DAILY FOR 54 WK (STUDY DURATION: 54 WK), Species: RAT, Strain/Sex: ACI/SEGHAPBR/MALE, Target Tissue: Type of Lesion: ADRENAL GLAND: TUMOR) is 15/43 (35%), 22/44 (50%), -43%, not significant; the “tumour outcome (control, treated, inhibition, significance)” value (Carcinogen: NONE USED, Dose [Inhibitor]: 687 MG/KG DIET DAILY FOR 54 WK (STUDY DURATION: 54 WK), Species: RAT, Strain/Sex: ACI/SEGHAPBR/MALE, Target Tissue: Type of Lesion: PANCREAS: ISLET CELL ADENOMA) is reported as 1/40 (3%), 8/44 (18%), -500%, p<0.05; the “tumour outcome (control, treated, inhibition, significance)” value (Carcinogen: NONE USED, Dose [Inhibitor]: 687 MG/KG DIET DAILY FOR 54 WK (STUDY DURATION: 54 WK), Species: RAT, Strain/Sex: ACI/SEGHAPBR/MALE, Target Tissue: Type of Lesion: PITUITARY GLAND: ADENOMA, CARCINOMA) is listed as 20/39 (51%), 19/41 (46%), 10%, not significant; the “tumour outcome (control, treated, inhibition, significance)” value (Carcinogen: NONE USED, Dose [Inhibitor]: 687 MG/KG DIET DAILY FOR 54 WK (STUDY DURATION: 54 WK), Species: RAT, Strain/Sex: ACI/SEGHAPBR/MALE, Target Tissue: Type of Lesion: PROSTATE GLAND: ADENOMA, CARCINOMA) was 19/44 (43%), 12/43 (28%), 35%, not significant; the “tumour outcome (control, treated, inhibition, significance)” value (Carcinogen: NONE USED, Dose [Inhibitor]: 687 MG/KG DIET DAILY FOR 54 WK (STUDY DURATION: 54 WK), Species: RAT, Strain/Sex: ACI/SEGHAPBR/MALE, Target Tissue: Type of Lesion: SKIN: TUMOR) was 12/45 (27%), 5/44 (11%), 59%, not significant; the “tumour outcome (control, treated, inhibition, significance)” value (Carcinogen: NONE USED, Dose [Inhibitor]: 687 MG/KG DIET DAILY FOR 54 WK (STUDY DURATION: 54 WK), Species: RAT, Strain/Sex: ACI/SEGHAPBR/MALE, Target Tissue: Type of Lesion: TESTES: INTERSTITIAL CELL TUMOR) is 21/45 (47%), 27/44 (61%), -30%, not significant.
